“Also recorded” adds a separate entry of the source.
Legend:
[1] = Example 6.2: body weight of LXFE 397 tumor-bearing mice; assay type: in vivo, NMRI nu/nu mice; details: FIG. 16
Method: The application volume was 20 ml/kg mouse body weight for saline and Voluven® 10% (i.v.) and 100 mg/kg for Capecitabine (p.o.).

[2] = system: human prostate carcinoma cell line PC-3; test: Example 4: PC-3 xenograft tumor growth in nude mice; assay type: in vivo; details: 3 week observation period; FIG. 5
Method: In another study which was performed in analogy to the study described above, the effect of “Voluven 10%” was tested on a different cancer cell line, i.e. on prostate cancer cell line PC3.
The rapidly growing human prostate carcinoma cell line PC-3 was used as xenograft tumor model in nude mice to test the efficacy of Voluven® 10% on reduction of tumour growth rates. Paclitaxel was employed as positive control and saline as negative control.
• Strain: NMRI nude (homozygous)-Rj:NMRI-nu • Sex: Female • Supplier: Elevage Janvier, Route des Chènes Secs, 53940 Le Genest St. Isle, France • Health status: SPF • Age at delivery: 5-6 weeks • Acclimatization: At least 6 days […]
Tumor measurement: The tumor growth was measured three times a week (e.g. Monday, Wednesday, and Friday) beginning with study day 3 (tumor measurable at size approx. 3 mm in diameter). Tumor volumes were calculated according to V=(length×(width)^2)/2. […]
To prepare the paclitaxel solution at a concentration of 2.5 mg/ml the paclitaxel stock solution (6 mg/ml) was diluted with 0.9% isotonic saline. […] Saline and Voluven® 10% were provided as ready-to-use formulations. […]
Statistical analyses of data were performed for each group separately. Group medians were calculated for body weights and tumor measurements for each investigation time. […] For the evaluation of tumor volume/area and T/C values were calculated using Microsoft Excel 7.0.

[3] = Example 6.1: body weight of LXFL 529 tumor-bearing mice; assay type: in vivo, NMRI nu/nu mice; details: FIG. 14
Method: The application volume was 20 ml/kg mouse body weight for saline and Voluven® 10% and 10 ml/kg of the 1 mg/ml solution for Everolimus (administered final dose 10 mg/kg). The route of administration was by i.v. injection into the tail vein for saline and Voluven® 10%. 10 mg/kg of body weight Everolimus was administered p.o.

With `CCCCCOC(=O)Nc1nc(=O)n([C@@H]2O[C@H](C)[C@@H](O)[C@H]2O)cc1F` [Capecitabine] the “body weight (in words)” value [1] was “not reduced”.

With `CC(=O)O[C@H]1C(=O)[C@@]2(C)[C@H]([C@H](OC(=O)c3ccccc3)[C@]3(O)C[C@H](OC(=O)[C@H](O)[C@@H](NC(=O)c4ccccc4)c4ccccc4)C(C)=C1C3(C)C)[C@]1(OC(C)=O)CO[C@@H]1C[C@@H]2O` [paclitaxel, Paclitaxel] the “effect on tumor volume (in words)” value [2] was “stable tumour size or reduced the tumor volume; also recorded: decrease of the initial tumor volume”.

For `CO[C@H]1C[C@@H]2CC[C@@H](C)[C@@](O)(O2)C(=O)C(=O)N2CCCC[C@H]2C(=O)O[C@H]([C@H](C)C[C@@H]2CC[C@@H](OCCO)[C@H](OC)C2)CC(=O)[C@H](C)/C=C(\C)[C@@H](O)[C@@H](OC)C(=O)[C@H](C)C[C@H](C)/C=C/C=C/C=C/1C` [Everolimus], the “body weight (in words)” value [3] was “slight reduction”.

Source: patent publication US20160082036A1, “HYDROXYALKYL STARCH FOR THE TREATMENT OF CANCERS BY REDUCTION OF TUMOR GROWTH RATES” (Fresenius Kabi Deutschland GmbH, priority 2012, published 2016)
